Laboratory results as given in patent publication US10703733B2, “MCL-1 inhibitors” (Gilead Sciences, Inc., priority 2018, dated 2020).
Where two headings read alike, the source gives them in different places.

What was measured:
[1] = molecular target: MCL-1/Bim interaction (recombinant human MCL-1 protein, residues 171-327; biotinylated human Bim peptide, residues 51-76) (Homo sapiens (Human), UniProt Q07820); experiment: MCL-1/Bim Binding AlphaLISA Assay; settings: 0.0625 nM 6xHis-Mcl-1 (171-327), 0.0625 nM biotinylated-Bim peptide
Procedure, shortened: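 AlphaLISA with 0.0625 nM His-tagged MCL-1 and 0.0625 nM biotin-Bim peptide in 20 mM Hepes pH 7.5, 150 mM NaCl, 0.002% Brij 35, 1 mM DTT, 0.01% BSA. Compound preincubated 1 h with MCL-1, Bim added for 2 h, then acceptor and donor beads 1 h each.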

[2] = system: SKBR3 cells; experiment: SKBR3 Cell Viability Assay (CellTiter Glo); type: cell-based; settings: CellTiter Glo luminescence, read-out: MCL-1 CV SKBR3 EC50
Procedure, shortened: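 SKBR3 cells (6,000/well) in McCoy 5A + 10% FBS exposed to serially diluted compound for 72 h at 37° C., 5% CO2. Viability by CellTiter Glo luminescence; % inhibition normalized to DMSO (negative) and 10 μM puromycin (positive).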

MCL-1/Bim interaction (recombinant human MCL-1 protein, residues 171-327; biotinylated human Bim peptide, residues 51-76), sequence (Q07820 171-327): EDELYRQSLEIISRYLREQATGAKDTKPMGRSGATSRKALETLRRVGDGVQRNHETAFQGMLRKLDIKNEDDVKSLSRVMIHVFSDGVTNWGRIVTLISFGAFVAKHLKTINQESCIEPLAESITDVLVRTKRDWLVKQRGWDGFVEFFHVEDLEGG

| IC50 [1] [nM] | EC50 ([2]; Homo sapiens, SK-BR-3, 72 h) [nM] | SMILES | EC50 ([2]; 72 hours) [nM] |
| --- | --- | --- | --- |
| 0.031 | 16.1 | CO[C@H]1/C=C/C[C@H](C)C[S@@](=O)(NC(=O)c2cc(CN3CCOCC3)n(C)c2)=NC(=O)c2ccc3c(c2)N(C[C@@H]2CC[C@H]21)C[C@@]1(CCCc2cc(Cl)ccc21)CO3 [Example 308] | – |
| 0.834 | 1660 | COC1CN(c2nn(C)cc2C(=O)N[S@@]2(=O)=NC(=O)c3ccc4c(c3)N(C[C@@H]3CC[C@H]3[C@@H](OC)/C=C/C[C@H](C)C2)C[C@@]2(CCCc3cc(Cl)ccc32)CO4)C1 [Example 379] | – |
| 0.018 | 47.9 | CO[C@H]1/C=C/C[C@H](C)C[S@@](=O)(NC(=O)N2CC3(CN(C)C(=O)O3)C2)=NC(=O)c2ccc3c(c2)N(C[C@@H]2CC[C@H]21)C[C@@]1(CCCc2cc(Cl)ccc21)CO3 [Example 272] | – |
| 0.161 | 113 | CO[C@H]1/C=C/C[C@H](C)C[S@@](=O)(NC(=O)[C@H](O)Cc2ccccc2)=NC(=O)c2ccc3c(c2)N(C[C@@H]2CC[C@H]21)C[C@@]1(CCCc2cc(Cl)ccc21)CO3 [Example 122] | – |
| 0.141 | 58.6 | CO[C@H]1/C=C/C[C@H](C)C[S@@](=O)(NC(=O)c2cc3n(c2)C[C@H](C)OC3)=NC(=O)c2ccc3c(c2)N(C[C@@H]2CC[C@H]21)C[C@@]1(CCCc2cc(Cl)ccc21)CO3 [Example 167] | – |
| 0.133 | 395 | CO[C@H]1/C=C/C[C@H](C)C[S@@](=O)(NC(=O)N[C@@H]2C[C@H]2C)=NC(=O)c2ccc3c(c2)N(C[C@@H]2CC[C@H]21)C[C@@]1(CCCc2cc(Cl)ccc21)CO3 [Example 433] | – |
| 0.086 | – | CO[C@H]1/C=C/C[C@H](C)C[S@@](=O)(NC(=O)NC2CC2CC(F)F)=NC(=O)c2ccc3c(c2)N(C[C@@H]2CC[C@H]21)C[C@@]1(CCCc2cc(Cl)ccc21)CO3 (single isomer, unassigned) [Example 282] | 28.7 |
| 0.103 | 332 | CO[C@H]1/C=C\C[C@H](C)[C@@H](C)[S@@](=O)(NC(=O)COC2CCOCC2)=NC(=O)c2ccc3c(c2)N(C[C@@H]2CC[C@H]21)C[C@@]1(CCCc2cc(Cl)ccc21)CO3 [Example 406] | – |
| 0.132 | – | CO[C@H]1/C=C/C[C@H](C)C[S@@](=O)(NC(=O)N[C@@H]2C[C@H]2c2cnn(C)c2)=NC(=O)c2ccc3c(c2)N(C[C@@H]2CC[C@H]21)C[C@@]1(CCCc2cc(Cl)ccc21)CO3 (single isomer, unassigned) [Example 183] | 195 |
| 0.102 | 162 | CO[C@H]1/C=C/C[C@H](C)C[S@@](=O)(NC(=O)N2CC(OC(=O)N3CCOCC3)C2)=NC(=O)c2ccc3c(c2)N(C[C@@H]2CC[C@H]21)C[C@@]1(CCCc2cc(Cl)ccc21)CO3 [Example 387] | – |
| 0.029 | 44.4 | CO[C@H]1/C=C/C[C@H](C)C[S@@](=O)(NC(=O)N2C[C@H](OC)[C@H]2C)=NC(=O)c2ccc3c(c2)N(C[C@@H]2CC[C@H]21)C[C@@]1(CCCc2cc(Cl)ccc21)CO3 [Example 250] | – |
| 0.116 | 94.1 | CO[C@H]1/C=C/C[C@H](C)C[S@@](=O)(NC(=O)c2cc3n(c2)CCOC3)=NC(=O)c2ccc3c(c2)N(C[C@@H]2CC[C@H]21)C[C@@]1(CCCc2cc(Cl)ccc21)CO3 [Example 139] | – |
| 0.064 | 259 | CO[C@H]1/C=C/C[C@H](C)C[S@@](=O)(NC(=O)N[C@@H]2C[C@H]2F)=NC(=O)c2ccc3c(c2)N(C[C@@H]2CC[C@H]21)C[C@@]1(CCCc2cc(Cl)ccc21)CO3 [Example 364] | – |
| 0.104 | 332 | CO[C@H]1/C=C/C[C@H](C)C[S@@](=O)(NC(=O)[C@H]2CCOC2)=NC(=O)c2ccc3c(c2)N(C[C@@H]2CC[C@H]21)C[C@@]1(CCCc2cc(Cl)ccc21)CO3 [Example 427] | – |
| 0.044 | 50 | COc1nn(C)cc1C(=O)N[S@@]1(=O)=NC(=O)c2ccc3c(c2)N(C[C@@H]2CC[C@H]2[C@@H](O)CCC[C@H](C)C1)C[C@@]1(CCCc2cc(Cl)ccc21)CO3 [Example 280] | – |
| 1.5 | 792 | CCC(=O)N[S@@]1(=O)=NC(=O)c2ccc3c(c2)N(C[C@@H]2CC[C@H]2[C@@H](OC)/C=C/C[C@H](C)[C@H]1C)C[C@@]1(CCCc2cc(Cl)ccc21)CO3 [Example 2] | – |
| 0.035 | 45.5 | CO[C@H]1/C=C/C[C@H](C)C[S@@](=O)(NC(=O)[C@H]2C[C@@](C)(O)C2)=NC(=O)c2ccc3c(c2)N(C[C@@H]2CC[C@H]21)C[C@@]1(CCCc2cc(Cl)ccc21)CO3 [Example 165] | – |

| IC50 [1] [nM] | EC50 ([2]; Homo sapiens, SK-BR-3, 72 h) [nM] | SMILES | EC50 ([2]; 72 hours) [nM] |
| --- | --- | --- | --- |
| 0.052 | 243 | COC[C@@H]1CN(C(=O)N[S@@]2(=O)=NC(=O)c3ccc4c(c3)N(C[C@@H]3CC[C@H]3[C@@H](OC)/C=C/C[C@H](C)C2)C[C@@]2(CCCc3cc(Cl)ccc32)CO4)CCO1 [Example 232] | – |
| 0.5 | 612 | CO[C@H]1/C=C/CCC[S@@](=O)(NC(=O)CCC2CC2)=NC(=O)c2ccc3c(c2)N(C[C@@H]2CC[C@H]21)C[C@@]1(CCCc2cc(Cl)ccc21)CO3 [Example 81] | – |
| 0.135 | 47.4 | CO[C@H]1/C=C/C[C@H](C)C[S@@](=O)(NC(=O)c2cc3c([nH]2)CCOC3)=NC(=O)c2ccc3c(c2)N(C[C@@H]2CC[C@H]21)C[C@@]1(CCCc2cc(Cl)ccc21)CO3 [Example 158] | – |
| 0.016 | 71.9 | COc1nn(C)cc1C(=O)N[S@@]1(=O)=NC(=O)c2ccc3c(c2)N(C[C@@H]2CC[C@H]2[C@@H](OC)CC[C@H](O)[C@H](C)C1)C[C@@]1(CCCc2cc(Cl)ccc21)CO3 [Example 298] | – |
| 0.033 | 64.3 | CO[C@H]1/C=C/C[C@H](C)C[S@@](=O)(NC(=O)N[C@H]2C[C@H](CO)C2)=NC(=O)c2ccc3c(c2)N(C[C@@H]2CC[C@H]21)C[C@@]1(CCCc2cc(Cl)ccc21)CO3 [Example 189] | – |
| 0.127 | 164 | COC[C@@H]1C[C@@H]1NC(=O)N[S@@]1(=O)=NC(=O)c2ccc3c(c2)N(C[C@@H]2CC[C@H]2[C@@H](OC)/C=C/C[C@H](C)C1)C[C@@]1(CCCc2cc(Cl)ccc21)CO3 [Example 315] | – |
| 0.145 | 93.8 | CO[C@H]1/C=C/C[C@H](C)C[S@@](=O)(NC(=O)c2cnn(C(F)F)c2)=NC(=O)c2ccc3c(c2)N(C[C@@H]2CC[C@H]21)C[C@@]1(CCCc2cc(Cl)ccc21)CO3 [Example 119] | – |
| 0.053 | 588 | CO[C@H]1/C=C/C[C@H](C)C[S@@](=O)(NC(=O)N2CC(O)C2)=NC(=O)c2ccc3c(c2)N(C[C@@H]2CC[C@H]21)C[C@@]1(CCCc2cc(Cl)ccc21)CO3 [Example 289] | – |
| 0.059 | 13.8 | COc1nn(C)cc1C(=O)N[S@@]1(=O)=NC(=O)c2ccc3c(c2)N(C[C@@H]2CC[C@H]2[C@@H](OC)/C=C/[C@H](OCCN(C)C)[C@H](C)C1)C[C@@]1(CCCc2cc(Cl)ccc21)CO3 [Example 403] | – |
| 0.041 | 130 | CO[C@H]1/C=C/C[C@H](C)C[S@@](=O)(NC(=O)c2cc3n(n2)CCCO3)=NC(=O)c2ccc3c(c2)N(C[C@@H]2CC[C@H]21)C[C@@]1(CCCc2cc(Cl)ccc21)CO3 [Example 197] | – |
| 0.345 | 85.5 | CO[C@H]1/C=C/C[C@H](C)[C@@H](C)[S@@](=O)(NC(=O)c2cc3n(c2)C[C@H](C)OC3)=NC(=O)c2ccc3c(c2)N(C[C@@H]2CC[C@H]21)C[C@@]1(CCCc2cc(Cl)ccc21)CO3 [Example 218] | – |
| 0.039 | 36.9 | CO[C@H]1/C=C/C[C@H](C)C[S@@](=O)(NC(=O)N2CC(OC(F)F)C2)=NC(=O)c2ccc3c(c2)N(C[C@@H]2CC[C@H]21)C[C@@]1(CCCc2cc(Cl)ccc21)CO3 [Example 354] | – |
| 0.1 | 874 | CO[C@H]1/C=C/CCC[S@@](=O)(NC(=O)CCn2ccc(C)n2)=NC(=O)c2ccc3c(c2)N(C[C@@H]2CC[C@H]21)C[C@@]1(CCCc2cc(Cl)ccc21)CO3 [Example 59] | – |
| 0.072 | 59.6 | CCn1cc(C(=O)N[S@@]2(=O)=NC(=O)c3ccc4c(c3)N(C[C@@H]3CC[C@H]3[C@@H](OC)/C=C/C[C@H](C)C2)C[C@@]2(CCCc3cc(Cl)ccc32)CO4)cn1 [Example 134] | – |
| 0.089 | 80.5 | COc1cc(C(=O)N[S@@]2(=O)=NC(=O)c3ccc4c(c3)N(C[C@@H]3CC[C@H]3[C@@H](OC)/C=C/C[C@H](C)C2)C[C@@]2(CCCc3cc(Cl)ccc32)CO4)c(OC)nn1 [Example 278] | – |
| 0.092 | 197 | COc1nn(C)cc1C(=O)N[S@@]1(=O)=NC(=O)c2ccc3c(c2)N(C[C@@H]2CC[C@H]2[C@@H](OC(=O)N(C)C)/C=C/C[C@H](C)C1)C[C@@]1(CCCc2cc(Cl)ccc21)CO3 [Example 404] | – |
| 0.029 | 84.8 | COc1nn(C)cc1C(=O)N[S@@]1(=O)=NC(=O)c2ccc3c(c2)N(C[C@@H]2CC[C@H]2[C@@H](OC)/C=C/[C@H](OC)[C@H](C)C1)C[C@@]1(CCCc2cc(Cl)ccc21)CO3 [Example 283] | – |

| SMILES | IC50 [1] [nM] | EC50 ([2]; Homo sapiens, SK-BR-3, 72 h) [nM] | EC50 ([2]; 72 hours) [nM] |
| --- | --- | --- | --- |
| CO[C@H]1/C=C/CCC[S@@](=O)(NC(=O)C2CC2)=NC(=O)c2ccc3c(c2)N(C[C@@H]2CC[C@H]21)C[C@@]1(CCCc2cc(Cl)ccc21)CO3 [Example 27] | 1.6 | 2080 | – |
| CCC(=O)N[S@@]1(=O)=NC(=O)c2ccc3c(c2)N(C[C@@H]2CC[C@H]2[C@@H](OC)CCCCC1)C[C@@]1(CCCc2cc(Cl)ccc21)CO3 [Example 12] | 1.7 | – | 4460 |
| COC[C@H]1C[C@H]1NC(=O)N[S@@]1(=O)=NC(=O)c2ccc3c(c2)N(C[C@@H]2CC[C@H]2[C@@H](OC)/C=C/C[C@H](C)C1)C[C@@]1(CCCc2cc(Cl)ccc21)CO3 [Example 316] | 0.056 | – | 116 |
